Results reported in patent US8044198B2, “Sirtuin modulating compounds” (Sirtris Pharmaceuticals, Inc., priority 2005, dated 2011).
Read-outs that look alike come from different tables or passages of the source.

Molecular target: T1, SIRT1 (Homo sapiens, UniProt Q96EB6)
T1 sequence (Q96EB6 1-747): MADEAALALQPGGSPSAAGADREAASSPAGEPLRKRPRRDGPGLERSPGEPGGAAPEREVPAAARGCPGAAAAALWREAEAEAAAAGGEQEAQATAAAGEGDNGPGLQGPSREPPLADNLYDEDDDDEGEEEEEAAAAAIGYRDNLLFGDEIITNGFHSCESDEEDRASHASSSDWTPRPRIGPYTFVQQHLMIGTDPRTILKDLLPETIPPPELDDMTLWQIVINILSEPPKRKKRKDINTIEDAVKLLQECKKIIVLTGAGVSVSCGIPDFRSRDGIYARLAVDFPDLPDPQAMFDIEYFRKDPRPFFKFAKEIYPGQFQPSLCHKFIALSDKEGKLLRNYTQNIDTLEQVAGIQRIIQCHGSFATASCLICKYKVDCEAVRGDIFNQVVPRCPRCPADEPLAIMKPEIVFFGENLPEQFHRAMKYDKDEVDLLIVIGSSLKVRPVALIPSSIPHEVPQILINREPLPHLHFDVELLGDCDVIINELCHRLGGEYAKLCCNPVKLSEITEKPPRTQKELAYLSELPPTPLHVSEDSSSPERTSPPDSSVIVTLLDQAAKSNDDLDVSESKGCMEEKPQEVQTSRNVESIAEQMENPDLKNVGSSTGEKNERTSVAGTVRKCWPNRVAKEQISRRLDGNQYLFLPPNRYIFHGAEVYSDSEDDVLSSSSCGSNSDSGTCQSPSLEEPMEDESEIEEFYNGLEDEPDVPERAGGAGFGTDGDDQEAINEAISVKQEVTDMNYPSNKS
Assay: SIRT1 mass spectrometry (MS) based deacetylation assay; as to FOLD ACT. MS: test concentration or dose not given here
Format: biochemical
Conditions: for FOLD ACT. MS: fold activation of SIRT1 as determined by MS

[1] = SIRT1 activation, mass spectrometry assay, read-out: ED50 MS ASSAY

| SMILES | EC50 [1] | FOLD ACT. MS | EC50 |
| --- | --- | --- | --- |
| COc1ccc(C(=O)Nc2ccc(-c3nc4cccnc4[nH]3)cc2)cc1OC [Compound 150] | < 5 µM | B (B (Fold Activation <250%)) |  |
| COc1ccc(C(=O)Nc2ccc(-c3nc4cccnc4[nH]3)cc2)c(OC)c1 [Compound 151] | > 150 µM |  |  |
| COc1ccc(C(=O)Nc2ccc(-c3nc4ncccc4s3)cc2)c(OC)c1 [Compound 152] | > 150 µM |  |  |
| CN(C)CCNC(=O)c1cc(NC(=O)c2cccc(N(C)C)c2)cc(-c2nc3ncccc3o2)c1 [Compound 154] | 101 to 150 µM | A (A (Fold activation >250%)) |  |
| COc1ccc(C(=O)Nc2cc(CN(C)C)cc(-c3nc4ncccc4o3)c2)cc1OC [Compound 156] | 5 to 50 µM | B (B (Fold Activation <250%)) |  |
| COc1ccc(C(=O)Nc2cc(CN3CCNCC3)cc(-c3nc4ncccc4o3)c2)cc1OC [Compound 159] | 5 to 50 µM | B (B (Fold Activation <250%)) |  |
| COc1ccc(C(=O)Nc2cc(CN3CCNCC3)cc(-c3nc4ncccc4o3)c2)c(OC)c1 [Compound 161] | 5 to 50 µM | A (A (Fold activation >250%)) |  |
| COc1ccc(C(=O)Nc2ccccc2-c2nc3ccncc3s2)cc1OC [Compound 162] | < 5 µM | B (B (Fold Activation <250%)) |  |
| COc1cc(C(=O)Nc2ccccc2-c2nc3ccncc3s2)cc(OC)c1OC [Compound 163] | < 5 µM | B (B (Fold Activation <250%)) |  |
| CN(C)Cc1ccc2oc(-c3cccc(NC(=O)c4cccc(N(C)C)c4)c3)nc2n1 [Compound 165] | > 150 µM | A (A (Fold activation >250%)) |  |
| CN(C)c1cccc(C(=O)Nc2cccc(-c3nc4nc(CN5CCNCC5)ccc4o3)c2)c1 [Compound 166, 3-dimethylamino-N-[3-(5-piperazin-1-ylmethyl-oxazolo[4,5-b]pyridin-2-yl)-phenyl]-benzamide] | 5 to 50 µM | B (B (Fold Activation <250%)) |  |
| CN(C(=O)Nc1ccccc1-c1nc2ccccc2[nH]1)c1ccccc1 [Compound 169] | < 5 µM | B (B (Fold Activation <250%)) |  |
| COc1ccc(C(=O)Nc2ccccc2-n2cccc2)cc1OC [Compound 175] | 51 to 100 µM | B (B (Fold Activation <250%)) |  |
| COc1ccc(C(=O)Nc2ccccc2-n2cccn2)cc1OC [Compound 177] | > 150 µM | B (B (Fold Activation <250%)) |  |
| COc1ccc(C(=O)Nc2ccccc2-c2cn3cc(CN(C)C)sc3n2)cc1OC [Compound 178] | 5 to 50 µM | A (A (Fold activation >250%)) |  |
| COc1cc(C(=O)Nc2ccccc2-c2cn3cc(CN(C)C)sc3n2)cc(OC)c1OC [Compound 179] | < 5 µM | A (A (Fold activation >250%)) |  |

| SMILES | EC50 [1] | FOLD ACT. MS | EC50 |
| --- | --- | --- | --- |
| CN(C)c1cccc(C(=O)Nc2ccc(-c3nc4cccnc4[nH]3)cc2)c1 [Compound 180] | 5 to 50 µM | B (B (Fold Activation <250%)) |  |
| COc1cc(C)ccc1C(=O)Nc1cccc(-c2nc3cccnc3[nH]2)c1 [Compound 182] | < 5 µM | A (A (Fold activation >250%)) |  |
| COc1cc(C)ccc1C(=O)Nc1ccc(-c2cc3cccnc3o2)cc1 [Compound 187] | 5 to 50 µM | B (B (Fold Activation <250%)) |  |
| COc1ccc(C(=O)Nc2ccc(-c3cc4cccnc4o3)cc2)c(OC)c1 [Compound 190] | < 5 µM | B (B (Fold Activation <250%)) |  |
| CN(C)c1cccc(C(=O)Nc2ccc(-c3nc4ncccc4s3)cc2)c1 [Compound 196] | 5 to 50 µM | B (B (Fold Activation <250%)) |  |
| COc1ccc(C(=O)Nc2cccc(-c3nc4ncccc4s3)c2)c(OC)c1OC [Compound 198] | 5 to 50 µM | B (B (Fold Activation <250%)) |  |
| COc1cc(C)ccc1C(=O)Nc1cccc(-c2nc3ncccc3s2)c1 [Compound 199] | < 5 µM | B (B (Fold Activation <250%)) |  |
| CN(C)c1cccc(C(=O)Nc2cccc(-c3nc4ncccc4s3)c2)c1 [Compound 200] |  | B (B (Fold Activation <250%)) | < 5 µM |
| COc1ccc(C(=O)Nc2cccc(-c3nc4ncccc4s3)c2)cc1OC [Compound 201] | 5 to 50 µM | B (B (Fold Activation <250%)) |  |
| COc1ccc(C(=O)Nc2cccc(-c3nc4ncccc4s3)c2)c(OC)c1 [Compound 202] | < 5 µM | B (B (Fold Activation <250%)) |  |
| COc1ccc(C(=O)Nc2ccccc2-c2cn3ccsc3n2)cc1OC [Compound 203] | < 5 µM | B (B (Fold Activation <250%)) |  |
| COc1cc(C(=O)Nc2ccccc2-c2cn3ccsc3n2)cc(OC)c1OC [Compound 204] | < 5 µM | A (A (Fold activation >250%)) |  |
| COc1ccc(C(=O)Nc2ccccc2-c2cn3c(CN(C)C)csc3n2)cc1OC [Compound 205] | 5 to 50 µM | A (A (Fold activation >250%)) |  |
| COc1cc(C(=O)Nc2ccccc2-c2cn3c(CN(C)C)csc3n2)cc(OC)c1OC [Compound 206] | 5 to 50 µM | A (A (Fold activation >250%)) |  |
| COc1ccc(C(=O)Nc2ccccc2-c2cn3c(CN4CCNCC4)csc3n2)cc1OC [Compound 207] | 5 to 50 µM | A (A (Fold activation >250%)) |  |
| COc1ccc(C(=O)Nc2cccc(-c3nc4ccccc4[nH]3)c2)c(OC)c1 [Compound 211] | < 5 µM | B (B (Fold Activation <250%)) |  |

Second part, led by results:

| EC50 [1] | FOLD ACT. MS | SMILES | EC50 |
| --- | --- | --- | --- |
| > 150 µM |  | COc1ccc(C(=O)Nc2ccc(-c3nc4cccnc4[nH]3)cc2)c(OC)c1OC [Compound 148] |  |
| < 5 µM | B (B (Fold Activation <250%)) | COc1cc(C)ccc1C(=O)Nc1ccc(-c2nc3cccnc3[nH]2)cc1 [Compound 149] |  |
| 5 to 50 µM | B (B (Fold Activation <250%)) | COc1ccc(C(=O)Nc2cc(C(=O)NCCN(C)C)cc(-c3nc4ncccc4o3)c2)cc1OC [Compound 153] |  |
| 5 to 50 µM | B (B (Fold Activation <250%)) | COc1ccc(C(=O)Nc2cc(C(=O)NCCN(C)C)cc(-c3nc4ncccc4o3)c2)c(OC)c1 [Compound 155] |  |
| > 150 µM | B (B (Fold Activation <250%)) | CN(C)Cc1cc(NC(=O)c2cccc(N(C)C)c2)cc(-c2nc3ncccc3o2)c1 [Compound 157] |  |
| 5 to 50 µM | B (B (Fold Activation <250%)) | COc1ccc(C(=O)Nc2cc(CN(C)C)cc(-c3nc4ncccc4o3)c2)c(OC)c1 [Compound 158] |  |
| 51 to 100 µM | A (A (Fold activation >250%)) | CN(C)c1cccc(C(=O)Nc2cc(CN3CCNCC3)cc(-c3nc4ncccc4o3)c2)c1 [Compound 160] |  |
| 5 to 50 µM | B (B (Fold Activation <250%)) | Cc1ccc2oc(-c3cccc(NC(=O)c4cccc(N(C)C)c4)c3)nc2n1 [Compound 167] |  |
| 51 to 100 µM | A (A (Fold activation >250%)) | COc1cc(C(=O)Nc2cc(CN(C)C)cc(-c3nc4ccncc4s3)c2)cc(OC)c1OC [Compound 174] |  |
| 51 to 100 µM | B (B (Fold Activation <250%)) | COc1cc(C(=O)Nc2ccccc2-n2cccn2)cc(OC)c1OC [Compound 176] |  |
| < 5 µM | A (A (Fold activation >250%)) | COc1ccc(C(=O)Nc2cccc(-c3nc4cccnc4[nH]3)c2)c(OC)c1OC [Compound 181] |  |
| 5 to 50 µM | A (A (Fold activation >250%)) | CN(C)c1cccc(C(=O)Nc2cccc(-c3nc4ncccc4[nH]3)c2)c1 [Compound 183] |  |
| < 5 µM | B (B (Fold Activation <250%)) | COc1ccc(C(=O)Nc2cccc(-c3nc4ncccc4[nH]3)c2)c(OC)c1 [Compound 184] |  |
| < 5 µM | A (A (Fold activation >250%)) | COc1ccc(C(=O)Nc2cccc(-c3nc4cccnc4[nH]3)c2)cc1OC [Compound 185] |  |
| < 5 µM | B (B (Fold Activation <250%)) | COc1ccc(C(=O)Nc2cccc(-c3cc4cccnc4o3)c2)c(OC)c1 [Compound 191] |  |
| 5 to 50 µM | B (B (Fold Activation <250%)) | COc1ccc(C(=O)Nc2cccc(-c3cc4cccnc4o3)c2)cc1OC [Compound 192] |  |
| < 5 µM | B (B (Fold Activation <250%)) | COc1ccc(C(=O)Nc2ccc(-c3nc4ncccc4s3)cc2)cc1OC [Compound 197] |  |
| 5 to 50 µM | A (A (Fold activation >250%)) | COc1cc(C(=O)Nc2ccccc2-c2cn3c(CN4CCNCC4)csc3n2)cc(OC)c1OC [Compound 208] |  |
| 5 to 50 µM | A (A (Fold activation >250%)) | COc1ccc(C(=O)Nc2ccccc2-c2cn3c(CN4CCOCC4)csc3n2)cc1OC [Compound 209] |  |
| 5 to 50 µM | B (B (Fold Activation <250%)) | COc1cc(C(=O)Nc2ccccc2-c2cn3c(CN4CCOCC4)csc3n2)cc(OC)c1OC [Compound 210] |  |
